Like-named read-outs stand apart in the source and are kept apart here.
Columns and labels:
WA09 hES cells [1] = experiment: Phase 2 targeted biomarker assay, ornithine/cystine ratio, 9-point dose response
Summary of the method: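 WA09 hES cells (≤ passage 40), plated as single cells at 100,000/well on Matrigel in mTeSR1 with 10 μM Y27632, dosed 24 h later with nine 3-fold dilutions, 0.04–300 μM, 0.1% DMSO, for 72 h. Final-24 h spent medium, spiked with 13C6-arginine and filtered (<10 kDa), analysed by LC-HRMS; viability by CellTiter-Fluor.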

WA09 hES cells [2] = tested on: WA09 hES cells
hES cells [3] = experiment: devTOX computational model predictions (Version 2.0, Version 2.1) from hES cell metabolomics; format: cell-based, human; conditions: single dose per treatment (Dose column)
Source text: The selection process weighted the predictive capacity of a feature, overall intensity, and peak shape to identify very well behaved features/metabolites that could be measured by targeted LC-MS or even by other detection systems.
(§1) This simplified model is based on a ratio of the reference treatment (DMSO) normalized values of ADMA and cystine.

hES cells [4] = experiment: ADMA/cystine ratio simplified predictive model in hES cell spent media; format: cell-based, human; conditions: single dose per treatment; ratios less than 0.9 indicate teratogenicity
Source text: as §1
The X-axis is the reference normalized ratio of ADMA/Cystine. The y-axis is the training set of pharmaceuticals. Grey color with triangle glyphs represents teratogens and black color with circle glyphs represents non-teratogens. Each glyph point represents the media value of an independent experimental block (6 reps per block). The crosshair glyphs mark the sample medians. In FIG. 9, grey vertical line is threshold of teratogenicity, grey horizontal lines are the median absolute deviations, and black vertical line designates 1.0. The arrows at the bottom indicate the values used for differentiation of teratogens and nonteratogens, utilizing a cut off of 0.9 (grey line).

[5] = therapeutic peak plasma in vivo concentration, human, cited from earlier work
Humans = conditions: cited from earlier work; for Humans (known human developmental toxicity): training and test set; for Known Effect: validation and test set treatments of Example 2
Rodent = conditions: training and test set; cited from earlier work
Rabbit = conditions: training and test set; cited from earlier work
[6] = tested on: mouse embryonic stem cell; conditions: training and test set; weak/moderate and strong teratogens both labeled teratogen; cited from earlier work
zebrafish = conditions: training and test set; weak/moderate and strong teratogens both labeled teratogen; cited from earlier work
rat whole embryo = conditions: training and test set; weak/moderate and strong teratogens both labeled teratogen; cited from earlier work
[7] = summarized from TERIS and Briggs et al. 2011, cited from earlier work
[8] = training and test set, o/c ratio scored against therapeutic Cmax
[9] = training set, interpolated concentration where o/c ratio dose response curve crosses teratogenicity threshold 0.88, 72 hours
[10] = training set, teratogenicity potential scored against therapeutic Cmax

Molecule	Change in the o/c ratio, also relative to cytotoxicity (WA09 hES cells [1])	O/C Ratio Prediction (WA09 hES cells [1])	Targeted Biomarker Assay prediction (WA09 hES cells [1])	Teratogenicity Potential (μM) O/C Ratio (WA09 hES cells [1]; human, 72 h)	Viability Prediction (WA09 hES cells [2])	Teratogenicity Potential (μM) Cell Viability (WA09 hES cells [2]; human, 72 h)	Model Predictions Version 2.0 (hES cells [3])	Model Predictions Version 2.1 (hES cells [3])	Model Predictions ADMA/Cystine (hES cells [4])	Cmax ([5]; training set)	Humans (known human developmental toxicity) (Humans)	Known Effect (Humans)	Rodent prediction (Rodent)	Rabbit prediction (Rabbit)	mEST prediction [6]	ZET prediction (zebrafish)	WEC prediction (rat whole embryo)	Preclinical in vivo and known human developmental effects ([7]; training set compounds)	further results
O=C1NS(=O)(=O)c2ccccc21 [Saccharin]	no change in the o/c ratio or viability	NON	NON	>300 µM	NON	>300 µM	Non	Non	Non	1400 nM	NON	Non	NON	NON	NON^b,i	NON^c,e	NON^j	None	–
CN(Cc1cnc2nc(N)nc(N)c2n1)c1ccc(C(=O)N[C@@H](CCC(=O)O)C(=O)O)cc1 [Methotrexate]	–	TER	TER	0.05 µM	TER	0.05 µM	Ter	Ter	Ter	200 nM	TER	Ter	TER	TER	TER^b,i	TER^d	TER^f	Craniofacial, limb, skeletal,	Cytotoxicity at the Cmax exposure level (WA09 hES cells [2]; human, 72 h): greater than 30%
CC1=C(/C=C/C(C)=C/C=C/C(C)=C/CO)C(C)(C)CCC1 [Retinol]	o/c ratio is directly correlated with cell death	NON	NON	42.2 µM	NON	42.8 µM	Ter	Non	Non	2400 nM	NON	Non	TER	TER	NON^p	TER^c,n	TER^q	Low Doses: None; High	Classification by o/c ratio in the targeted biomarker assay (WA09 hES cells [1]): correctly classify; Exposure level of o/c ratio change/cell death relative to levels normally encountered by humans (WA09 hES cells [1]; human, 72 h): ~20 times; Dose shown to cause malformations (Humans; experimental animals and humans, Teratology Society 1987): > 25,000 IU/day; Dose without adverse effect on the developing fetus (FDA maximum RDA) (Humans; human pregnancy): ≤ 8,000 IU
CCOC(=O)N1CCC(=C2c3ccc(Cl)cc3CCc3cccnc32)CC1 [Loratadine]	–	–	–	–	–	–	–	–	–	–	–	–	NON	NON	NON^i	TER^d	NON^f,j	–	Targeted Biomarker Assay prediction (WA09 hES cells [1]; [8]): NON; Teratogenicity Potential (μM) Cell Viability (WA09 hES cells [2]; test set, interpolated concentration where cell viability dose response curve crosses teratogenicity threshold 0.88, 72 hours): 76.3 µM; Viability Prediction (WA09 hES cells [2]; test set, teratogenicity potential scored against therapeutic Cmax): NON; Preclinical in vivo and known human developmental effects ([7]; test set compounds): None
O=c1[nH]cc(F)c(=O)[nH]1 [5-Fluorouracil]	change in o/c ratio that is directly correlated with a decrease in cell viability	TER	TER	3 µM	TER	2 µM	Ter	Ter	Ter	4250 nM	TER	Ter	TER	TER	TER^b,i	TER^c	TER^f,k	Craniofacial, central	Cytotoxicity at the Cmax exposure level (WA09 hES cells [2]; human, 72 h): greater than 30%
CCN(CC)CCNC(=O)c1cc(Cl)c(N)cc1OC [Metoclopramide]	–	NON	NON	190.8 µM	NON	>300 µM	Ter	Non	Non	–	NON	Non	NON	NON	TER^i,m	NON^d	NON^f,j	–	Cmax ([5]; test set): 150 nM; Preclinical in vivo and known human developmental effects ([7]; test set compounds): None
CC1(C)S[C@@H]2[C@H](NC(=O)Cc3ccccc3)C(=O)N2[C@H]1C(=O)O [Penicillin G]	–	–	–	–	–	–	Non	Non	Non	135000 nM	NON	Non	NON	NON	NON^b,i	NON^c,e,n	NON^f,j	None	Targeted Biomarker Assay prediction (WA09 hES cells [1]; [8]): NON; Teratogenicity Potential (μM) O/C Ratio (WA09 hES cells [1]; [9]): >300 µM; O/C Ratio Prediction (WA09 hES cells [1]; [10]): NON; Teratogenicity Potential (μM) Cell Viability (WA09 hES cells [2]; training set, interpolated concentration where cell viability dose response curve crosses teratogenicity threshold 0.88, 72 hours): >300 µM; Viability Prediction (WA09 hES cells [2]; [10]): NON
NNC(=O)c1ccncc1 [Isoniazid]	–	NON	NON	165.4 µM	NON	>300 µM	Ter	Ter	Non	51000 nM	NON	Non	NON	NON	NON^b,i	NON^c,n	TER^f,j	None	–
Cytosine Arabinoside	–	–	–	–	–	–	Ter	Ter	Ter	600 nM	–	Ter	TER	–	TER^i	TER^n	TER^j	Limb	Teratogenicity Potential (μM) O/C Ratio (WA09 hES cells [1]; [9]): 0.04 µM; Teratogenicity Potential (μM) Cell Viability (WA09 hES cells [2]): 0.1 µM

— patent publication US10209240B2, “Predicting human developmental toxicity of pharmaceuticals using human stem-like cells and metabolomic ratios” (STEMINA BIOMARKER DISCOVERY, INC., priority 2012, dated 2019)
